Results taken from publication PMC12734371, “Synthesis, Anti-Tumour, and Antibacterial Activities of Monocarbonyl Curcumin Analogues of Piperidones” (International Journal of Molecular Sciences, 2025).
Converted amounts (≈) assume the structure as drawn. “Also recorded” adds a separate entry of the source.

Legend:
A549 cells [1] = experiment: MTT assay, inhibition of tumour cell growth; type: cell-based, human; conditions: 24 h, mean ± s, n = 3
Procedure: (§1) The tumour cell suspension in logarithmic growth phase, containing about 5 × 10^3 cells, was taken and seeded onto a 96-well plate and gently shaken to disperse the cells evenly at the bottom of the plate. The cells were incubated in a constant temperature (37 °C) incubator for 24 h. The old medium was discarded, and 100 μL of the prepared working solution of piperidinone monocarbonyl curcumin analogues at different concentrations was added, and the cells were incubated in a constant temperature incubator for 24 h. Blank medium wells, blank cell wells, and 0.9% DMSO (highest content) wells were set up, with 6 multi-well and 3 multi-plates for each concentration. The discarded old medium was absorbed, and 100 μL of 10% 5 mg/mL MTT working solution was added to each well (operated away from light) and placed in a cell incubator for further incubation for 4 h. The old medium was discarded, and 100 μL of DMSO was added to each well and shaken in an air shaker at 100 RPM for 10 min. The absorbance of the OD value was measured at 490 nm by a multifunctional microplate analyzer. According to Formula (1), the inhibition rates of different piperidones monocarbonyl curcumin analograms on 4 tumour cells were calculated, and IC50 was calculated by GraphPad Prism 8.0:Inhibition rate (%) = (OD blank cell group − OD administration group)/OD blank cell group(1)

Hela cells = experiment: MTT assay, inhibition of tumour cell growth; type: cell-based, human; conditions: 24 h, mean ± s, n = 3
Procedure: as §1

HepG2 cells = experiment: MTT assay, inhibition of tumour cell growth; type: cell-based, human; conditions: 24 h, mean ± s, n = 3
Procedure: as §1

MCF-7 cells = experiment: MTT assay, inhibition of tumour cell growth; type: cell-based, human; conditions: 24 h, mean ± s, n = 3
Procedure: as §1

L02 cells = experiment: MTT assay, toxicity to human normal liver cells; type: cell-based; conditions: 24 h, mean ± s, n = 3
Procedure: The cells were passaged to the fourth generation of L02 cells, and the cell suspension containing about 5 × 10^3 cells was added to each well of the 96-well plate and cultured in a cell culture incubator for 24 h. The old medium was discarded, and different concentrations of liquid medicine (6 porous and 3 plates for each concentration) were added and incubated for 24 h. The old medium was discarded, 10% of 5 mg/mL MTT working solution was added in the dark, and the cells were incubated in a cell incubator for 4 h. The old medium was discarded, 100 μL DMSO was added to each well, and 100 RPM was oscillated on an air shaker for 10 min. The OD value was measured at 490 nm with a multifunctional microplate reader. According to the OD value, the inhibition rate of different piperidone monocarbonyl curcumin analogues on L02 cells was calculated according to Formula (1), and IC50 was calculated by Graph Pad Prism 8.0.

A549 cells [2] = experiment: Cell wound scratch assay (migration); type: cell-based, human; conditions: 6 h; high, medium, and low concentrations
Procedure: A549 cells in logarithmic phase were digested with 0.25% trypsin and blown to single cell suspension with a dropper. The cell density was adjusted to 5 × 10^5 cells/mL. The cells were inoculated on 6-well plates, 2 mL per well, and cultured in a cell incubator at 37 °C, 5% CO2, and saturated humidity for 24 h until the gaps were basically fused. A 10 μL micro pipette tip was used to scratch vertically in a 6-well plate. After washing with PBS solution 3 times, the drug-containing medium was added, 2 mL per well, and three wells were set in each group. The culture plates were placed in a 5% CO2 incubator at 37 °C for 6 h and 24 h and observed and photographed with an inverted fluorescence microscope. The images were obtained by NIS Elements Viewer 4.2.0, and the scratch area and width were calculated. The cell migration rate was calculated by Formula (2):[Cell migration rate (%) = (0 h scratch area − scratch area at different times)/0 h scratch area × 100%](2)

A549 cells [3] = experiment: Cell morphology by inverted microscope; type: cell-based, human; conditions: 5 μmol/L, 24 h
Procedure: The cells were inoculated in a 6-well plate, and about 1 × 10^6 A549 cells in the logarithmic growth phase were inoculated in each well. After the cells were cultured in a constant temperature incubator for 24 h, the old medium was discarded, and five kinds of piperidone monocarbonyl curcumin analogue solution (5, 10, and 20 μmol/L), curcumin (10, 20, and 40 μmol/L), and 0.9% DMSO were added as the blank control group for 24 h, and then the cell morphology was observed by inverted microscope (200×).

[4] = tested on: ERK (extracellular regulated protein kinases); experiment: Western blot, ERK level in A549 cells; type: cell-based, human; conditions: 10, 5, 2.5 μmol/L, 24 h
Procedure: A549 cells in logarithmic growth phase were seeded in 6-well plates at 1 × 10^6 cells/mL per well. The cells were cultured overnight in an incubator. Different concentrations of drug-containing medium of 2,5-2Cl, 2Br-5Cl, 2-Cl, 2-F, benzaldehyde ([…]), curcumin (20 μmol/L), and cisplatin (30 μmol/L) were added, and the blank control […] The RIPA cell lysis buffer containing protease inhibitors was added to the Petri dish to collect the proteins of each experimental group, and the supernatant was collected as a protein sample after ultrasonic centrifugation. Protein quantification was performed by the BCA method. A total of 20 μg protein was separated by 10% SDS-PAGE, and then the protein was transferred to a PVDF membrane. The membrane was blocked with 5% skim milk for 1 h, and the corresponding primary antibody was incubated at 4 °C overnight. After washing the membrane three times with TBST, the bands were incubated with the corresponding secondary antibodies at room temperature for 1 h. After cleaning the membrane with TBST 3 times, the darkroom was developed with ECL luminescence. Using GAPDH as an internal reference, the protein bands were analyzed by ImageJ 1.8.0.

MRSA [5] = experiment: Broth microdilution inhibition test and MIC; type: cell-based, methicillin-resistant Staphylococcus aureus
Procedure: Then, the MIC values of 100% compounds at the maximum inhibitory concentration were obtained by the broth microdilution method. The specific experiments are as follows: First, in the 96-well plate, add 100 μL of compound working solution from column 2 to column 8, with concentrations decreasing from high to low, repeating each concentration 6 times. Add 100 μL of NB nutrient broth containing 1% DMSO to column 9, and 100 μL of blank NB nutrient broth to columns 10 and 11. Then, add 10 μL of bacterial suspension to each well from columns 2 to 10. Place the 96-well plate in a 37 °C incubator for 16 h at 100 rpm and measure the absorbance at 600 nm by microplate reader. Columns 2 to 9 represent the drug treatment group, column 10 is the negative control group, and column 11 is the blank control group. The minimum concentration that inhibits bacterial growth is the MIC value of the compound: Bacterial inhibition rate (%) = (OD administration − OD control)/(ODcontrol − OD blank) (3)

MRSA [6] = experiment: Time inhibition curve against MRSA; type: cell-based, methicillin-resistant Staphylococcus aureus; conditions: 160 μmol/L and 80 μmol/L
Procedure: Based on the results of previous experiments, the promising compounds were selected. According to the administration method under ‘2.3.2’, the absorbance values of the promising compounds at 600 nm at different concentrations of bacteria at 4, 14, 18, and 24 h were measured by a microplate reader, and the inhibitory effect of the compounds on MRSA at different time points was calculated. The time inhibition curve of the compound against MRSA was made with the abscissa as the time and the ordinate as the bacterial inhibition rate.

MRSA [7] = experiment: AGAR plate zone of inhibition test (filter paper); type: cell-based, methicillin-resistant Staphylococcus aureus; conditions: 160 μmol/L, 6 mm filter paper, 16 h, mean ± s, n = 3
Procedure: Based on the results of previous experiments, the promising compounds were selected, and the size of the inhibition zone at 160 μmol/L was determined. The specific operation was as follows: The nutrient agar medium, after high temperature sterilization, was poured into about 20 mL per 9 cm plate in an ultra-clean bench and naturally cooled and solidified. Each plate was evenly coated with 100 μL MRSA bacterial suspension. The filter paper of 6 mm diameter soaked in the drug solution was dried by flame evaporation, and four tablets were placed in parallel into each plate, cultured in a constant temperature incubator at 37 °C for 16 h, and the size of the inhibition zone was measured.

Row | Compound | IC50 (A549 cells [1]) [µM] | IC50 (Hela cells) [µM] | IC50 (HepG2 cells) [µM] | IC50 (MCF-7 cells) [µM] | IC50 (L02 cells) [µM] | Cell migration rate vs blank control (0.9% DMSO) (A549 cells [2]) | Cell morphology (A549 cells [3]) | ERK protein level vs control group [4] | Inhibition rate of MRSA (MRSA [5]; 60 μmol/L) | Inhibition rate of MRSA (MRSA [5]; 70 μmol/L) [%] | Inhibition of MRSA (MRSA [5]; 160 μmol/L) [%] | MIC (MRSA [5]; MRSA, broth microdilution) [µM] | Inhibition rate of MRSA over time (MRSA [6]; 18 h) [%] | Inhibition rate of MRSA over time (MRSA [6]; 24 h) [%] | Diameter of Bacteriostatic Zone (MRSA [7]) [mm]
1 | 3,5-Bis(2-bromo-benzyl)-4-piperidone | 16.6 ± 1.84 | 12.3 ± 2.67 | 7.03 ± 3.24 | > 40 | – | – | – | – | – | – | – | – | – | – | –
2 | 3,5-Bis(3,5-dibromo-benzyl)-4-piperidone [3,5-2Br] | > 40 | 12.8 ± 3.18 | > 40 | > 40 | – | – | – | – | – | – | – | – | – | – | –
3 | 3,5-Bis(4-bromo-benzyl)-4-piperidinone | 15.5 ± 2.35 | > 40 | 7.15 ± 4.62 | 19.7 ± 3.68 | – | – | – | – | – | – | – | – | – | – | –
4 | O=C1C(=Cc2ccccc2Cl)CNCC1=Cc1ccccc1Cl [2-Cl] | 4.81 ± 1.69 | 6.61 ± 1.93 | 8.53 ± 2.61 | 5.7 ± 1.21 | 70.5 ± 1.85 | no statistical difference | most of the cells became round and loose | significantly lower | less than 100% | 100 | 100 | 70 (≈ 24.1 µg/mL) | 100 | 87.02 | 14.67 ± 0.58
5 | O=C1C(=Cc2ccc(Cl)cc2Br)CNCC1=Cc1ccc(Cl)cc1Br [2Br-4Cl] | 18.2 ± 3.15 | 23.4 ± 3.34 | 27.3 ± 2.64 | > 40 | – | – | – | – | – | – | – | – | – | – | –
6 | O=C1C(=Cc2ccc(F)cc2Br)CNCC1=Cc1ccc(F)cc1Br [2Br-4F] | 21.8 ± 3.68 | > 40 | 18.3 ± 4.38 | > 40 | – | – | – | – | – | – | – | – | – | – | –
7 | O=C1C(=Cc2cc(Cl)ccc2Br)CNCC1=Cc1cc(Cl)ccc1Br [2Br-5Cl] | 4.75 ± 1.51 | 6.24 ± 2.46 | 8.42 ± 1.99 | 6.36 ± 1.28 | 58.2 ± 2.79 | no statistical difference | most of the cells became round and loose | significantly lower; also recorded: most obvious | – | – | – | – | – | – | –
